# According to patent publication US12471596B2 (priority 2019, dated 2025):
# Test system: Phytophthora infestans
# Experiment: microbe, parasite or virus in culture
# Type: cell-based
# Conditions: in Secale cereale, 168 h, read-out: control compared to the untreated check
row,Compound,inhibition of growth at 30 ppm
1,"COc1nccnc1OCC(=O)N1CCC(c2nc(C3=NOC(c4c(Cl)cccc4C(F)(F)F)C3)cs2)CC1 (stereo not shown) [Compound 65, 1-(4-(4-(5-(2-chloro-6-(trifluoromethyl)phenyl)-4,5-dihydroisoxazol-3-yl)thiazol-2-yl)piperidin-1-yl)-2-((3-methoxypyrazin-2-yl)oxy)ethan-1-one]",≥ 70%
2,"COc1cncnc1OCC(=O)N1CCC(c2nc(C3=NOC(c4c(Cl)cccc4Cl)C3)cs2)CC1 (stereo not shown) [Compound 73, 1-(4-(4-(5-(2,6-dichlorophenyl)-4,5-dihydroisoxazol-3-yl)thiazol-2-yl)piperidin-1-yl)-2-((5-methoxypyrimidin-4-yl)oxy)ethan-1-one]",≥ 70%
3,"COc1ncc(OCC(=O)N2CCC(c3nc(C4=NOC(c5c(F)cccc5Br)C4)cs3)CC2)cn1 (stereo not shown) [Compound 134, 1-(4-(4-(5-(2-bromo-6-fluorophenyl)-4,5-dihydroisoxazol-3-yl)thiazol-2-yl)piperidin-1-yl)-2-((2-methoxypyrimidin-5-yl)oxy)ethan-1-one]",≥ 70%
4,"O=C(COc1nccc(C(F)(F)F)n1)N1CCC(c2nc(C3=NOC(c4c(Cl)cc(Cl)cc4Cl)C3)cs2)CC1 (stereo not shown) [Compound 49, 1-(4-(4-(5-(2,4,6-trichlorophenyl)-4,5-dihydroisoxazol-3-yl)thiazol-2-yl)piperidin-1-yl)-2-((4-(trifluoromethyl)pyrimidin-2-yl)oxy)ethan-1-one]",≥ 70%
5,"COc1ncc(OCC(=O)N2CCC(c3nc(C4=NOC(c5c(Cl)cccc5C(F)(F)F)C4)cs3)CC2)cn1 (stereo not shown) [Compound 137, 1-(4-(4-(5-(2-chloro-6-(trifluoromethyl)phenyl)-4,5-dihydroisoxazol-3-yl)thiazol-2-yl)piperidin-1-yl)-2-((2-methoxypyrimidin-5-yl)oxy)ethan-1-one]",≥ 70%
6,"COc1nc(OC)nc(OCC(=O)N2CCC(c3nc(C4=NOC(c5c(Cl)cccc5OS(C)(=O)=O)C4)cs3)CC2)n1 (stereo not shown) [Compound 107, 3-chloro-2-(3-(2-(1-(2-((4,6-dimethoxy-1,3,5-triazin-2-yl)oxy)acetyl)piperidin-4-yl)thiazol-4-yl)-4,5-dihydroisoxazol-5-yl)phenyl methanesulfonate]",≥ 70%
7,"N#Cc1ccnc(OCC(=O)N2CCC(c3nc(C4=NOC(c5cc(Cl)ccc5Cl)C4)cs3)CC2)n1 (stereo not shown) [Compound 152, 2-(2-(4-(4-(5-(2,5-dichlorophenyl)-4,5-dihydroisoxazol-3-yl)thiazol-2-yl)piperidin-1-yl)-2-oxoethoxy)pyrimidine-4-carbonitrile]",≥ 70%
8,"O=C(COc1cncc(C(F)(F)F)n1)N1CCC(c2nc(C3=NOC(c4c(F)cccc4Br)C3)cs2)CC1 (stereo not shown) [Compound 59, 1-(4-(4-(5-(2-bromo-6-fluorophenyl)-4,5-dihydroisoxazol-3-yl)thiazol-2-yl)piperidin-1-yl)-2-((6-(trifluoromethyl)pyrazin-2-yl)oxy)ethan-1-one]",≥ 70%
9,"CSc1nccnc1OCC(=O)N1CCC(c2nc(C3=NOC(c4c(Cl)cccc4Br)C3)cs2)CC1 (stereo not shown) [Compound 158, 1-(4-(4-(5-(2-bromo-6-chlorophenyl)-4,5-dihydroisoxazol-3-yl)thiazol-2-yl)piperidin-1-yl)-2-((3-(methylthio)pyrazin-2-yl)oxy)ethan-1-one]",≥ 70%
10,"CS(=O)(=O)Oc1ccc(F)c2c1COC(c1csc(C3CCN(C(=O)COc4nccnc4C(F)(F)F)CC3)n1)OC2 (stereo not shown) [Compound 154, 9-fluoro-3-(2-(1-(2-((3-(trifluoromethyl)pyrazin-2-yl)oxy)acetyl)piperidin-4-yl)thiazol-4-yl)-1,5-dihydrobenzo[e][1,3]dioxepin-6-yl methanesulfonate]",≥ 70%
11,"COc1ccnc(OCC(=O)N2CCC(c3nc(C4=NOC(c5c(Cl)ccc(F)c5F)C4)cs3)CC2)n1 (stereo not shown) [Compound 63, 1-(4-(4-(5-(6-chloro-2,3-difluorophenyl)-4,5-dihydroisoxazol-3-yl)thiazol-2-yl)piperidin-1-yl)-2-((4-methoxypyrimidin-2-yl)oxy)ethan-1-one]",≥ 70%
12,"O=C(COc1cncc(C(F)(F)F)n1)N1CCC(c2nc(C3=NOC(c4c(F)cccc4F)C3)cs2)CC1 (stereo not shown) [Compound 58, 1-(4-(4-(5-(2,6-difluorophenyl)-4,5-dihydroisoxazol-3-yl)thiazol-2-yl)piperidin-1-yl)-2-((6-(trifluoromethyl)pyrazin-2-yl)oxy)ethan-1-one]",≥ 70%
13,"COc1nccnc1OCC(=O)N1CCC(c2nc(C3=NOC(c4c(Cl)cccc4Cl)C3)cs2)CC1 (stereo not shown) [Compound 30, 1-(4-(4-(5-(2,6-dichlorophenyl)-4,5-dihydroisoxazol-3-yl)thiazol-2-yl)piperidin-1-yl)-2-((3-methoxypyrazin-2-yl)oxy)ethan-1-one]",≥ 70%
14,"CS(=O)(=O)Oc1cccc(Cl)c1C1CC(c2csc(C3CCN(C(=O)COc4cncc(C(F)(F)F)n4)CC3)n2)=NO1 (stereo not shown) [Compound 57, 3-chloro-2-(3-(2-(1-(2-((6-(trifluoromethyl)pyrazin-2-yl)oxy)acetyl)piperidin-4-yl)thiazol-4-yl)-4,5-dihydroisoxazol-5-yl)phenyl methanesulfonate]",≥ 70%
15,"CS(=O)(=O)Oc1ccc(F)c2c1COC(c1csc(C3CCN(C(=O)COc4nccnc4Cl)CC3)n1)OC2 (stereo not shown) [Compound 155, 3-(2-(1-(2-((3-chloropyrazin-2-yl)oxy)acetyl)piperidin-4-yl)thiazol-4-yl)-9-fluoro-1,5-dihydrobenzo[e][1,3]dioxepin-6-yl methanesulfonate]",≥ 70%
16,"O=C(COc1nccc(C(F)(F)F)n1)N1CCC(c2nc(C3=NOC(c4c(F)cccc4Cl)C3)cs2)CC1 (stereo not shown) [Compound 48, 1-(4-(4-(5-(2-chloro-6-fluorophenyl)-4,5-dihydroisoxazol-3-yl)thiazol-2-yl)piperidin-1-yl)-2-((4-(trifluoromethyl)pyrimidin-2-yl)oxy)ethan-1-one]",≥ 70%
17,"COc1ccnc(OCC(=O)N2CCC(c3nc(C4=NOC(c5c(Cl)cccc5C(F)(F)F)C4)cs3)CC2)n1 (stereo not shown) [Compound 82, 1-(4-(4-(5-(2-chloro-6-(trifluoromethyl)phenyl)-4,5-dihydroisoxazol-3-yl)thiazol-2-yl)piperidin-1-yl)-2-((4-methoxypyrimidin-2-yl)oxy)ethan-1-one]",≥ 70%
18,"COc1nccnc1OCC(=O)N1CCC(c2csc(C3=NOC(c4c(F)cccc4Cl)C3)n2)CC1 (stereo not shown) [Compound 97, 1-(4-(2-(5-(2-chloro-6-fluorophenyl)-4,5-dihydroisoxazol-3-yl)thiazol-4-yl)piperidin-1-yl)-2-((3-methoxypyrazin-2-yl)oxy)ethan-1-one]",≥ 70%
19,"CS(=O)(=O)c1nccnc1OCC(=O)N1CCC(c2nc(C3=NOC(c4c(F)cccc4Br)C3)cs2)CC1 (stereo not shown) [Compound 159, 1-(4-(4-(5-(2-bromo-6-fluorophenyl)-4,5-dihydroisoxazol-3-yl)thiazol-2-yl)piperidin-1-yl)-2-((3-(methylsulfonyl)pyrazin-2-yl)oxy)ethan-1-one]",≥ 70%
20,"O=C(COc1cncc(C(F)(F)F)n1)N1CCC(c2nc(C3=NOC(c4c(Cl)cccc4Cl)C3)cs2)CC1 (stereo not shown) [Compound 55, 1-(4-(4-(5-(2,6-dichlorophenyl)-4,5-dihydroisoxazol-3-yl)thiazol-2-yl)piperidin-1-yl)-2-((6-(trifluoromethyl)pyrazin-2-yl)oxy)ethan-1-one]",≥ 70%
21,"O=C(COc1nccc(C(F)(F)F)n1)N1CCC(c2nc(C3=NOC(c4c(F)cccc4Br)C3)cs2)CC1 (stereo not shown) [Compound 52, 1-(4-(4-(5-(2-bromo-6-fluorophenyl)-4,5-dihydroisoxazol-3-yl)thiazol-2-yl)piperidin-1-yl)-2-((4-(trifluoromethyl)pyrimidin-2-yl)oxy)ethan-1-one]",≥ 70%
22,"COc1ncc(OCC(=O)N2CCC(c3nc(C4=NOC(c5c(Cl)cccc5OS(C)(=O)=O)C4)cs3)CC2)cn1 (stereo not shown) [Compound 130, 3-chloro-2-(3-(2-(1-(2-((2-methoxypyrimidin-5-yl)oxy)acetyl)piperidin-4-yl)thiazol-4-yl)-4,5-dihydroisoxazol-5-yl)phenyl methanesulfonate]",≥ 70%
23,"COc1cncnc1OCC(=O)N1CCC(c2nc(C3=NOC(c4cc(Cl)ccc4Cl)C3)cs2)CC1 (stereo not shown) [Compound 77, 1-(4-(4-(5-(2,5-dichlorophenyl)-4,5-dihydroisoxazol-3-yl)thiazol-2-yl)piperidin-1-yl)-2-((5-methoxypyrimidin-4-yl)oxy)ethan-1-one]",≥ 70%
24,"COc1ccnc(OCC(=O)N2CCC(c3nc(C4=NOC(c5c(O)cccc5Cl)C4)cs3)CC2)n1 (stereo not shown) [Compound 83, 1-(4-(4-(5-(2-chloro-6-hydroxyphenyl)-4,5-dihydroisoxazol-3-yl)thiazol-2-yl)piperidin-1-yl)-2-((4-methoxypyrimidin-2-yl)oxy)ethan-1-one]",≥ 70%
25,"COc1ncc(OCC(=O)N2CCC(c3nc(C4=NOC(c5c(Cl)cc(Cl)cc5Cl)C4)cs3)CC2)cn1 (stereo not shown) [Compound 133, 2-((2-methoxypyrimidin-5-yl)oxy)-1-(4-(4-(5-(2,4,6-trichlorophenyl)-4,5-dihydroisoxazol-3-yl)thiazol-2-yl)piperidin-1-yl)ethan-1-one]",≥ 70%
26,"N#Cc1ccnc(OCC(=O)N2CCC(c3nc(C4=NOC(c5c(F)cccc5Br)C4)cs3)CC2)n1 (stereo not shown) [Compound 117, 2-(2-(4-(4-(5-(2-bromo-6-fluorophenyl)-4,5-dihydroisoxazol-3-yl)thiazol-2-yl)piperidin-1-yl)-2-oxoethoxy)pyrimidine-4-carbonitrile]",≥ 70%
27,"CSc1nccnc1OCC(=O)N1CCC(c2nc(C3=NOC(c4c(Cl)cccc4Cl)C3)cs2)CC1 (stereo not shown) [Compound 148, 1-(4-(4-(5-(2,6-dichlorophenyl)-4,5-dihydroisoxazol-3-yl)thiazol-2-yl)piperidin-1-yl)-2-((3-(methylthio)pyrazin-2-yl)oxy)ethan-1-one]",≥ 70%
28,"N#Cc1nccc(OCC(=O)N2CCC(c3nc(C4=NOC(c5c(O)cccc5Cl)C4)cs3)CC2)n1 (stereo not shown) [Compound 95, 4-(2-(4-(4-(5-(2-chloro-6-hydroxyphenyl)-4,5-dihydroisoxazol-3-yl)thiazol-2-yl)piperidin-1-yl)-2-oxoethoxy)pyrimidine-2-carbonitrile]",≥ 70%
